# From US10093678B2, “Azaspiro derivatives as TRPM8 antagonists” (RaQualia Pharma Inc., priority 2014, dated 2018)
# pIC50, pKi: −log10 of the molar value.
# Molecular target: T1, Human HERG (Homo sapiens, UniProt Q12809)
# T1 construct: expressed in transfected cells; host or cells: HEK293S (membrane homogenate)
# Test: Human dofetilide binding assay
# Details: Human HERG transfected HEK293S cell membranes
# Description: Human Dofetilide Binding Assay
# Human HERG transfected HEK293S cells are prepared and grown in-house. The collected cells are suspended in 50 mM Tris-HCl (pH 7.4 at 4° C.) and homogenized using a hand held Polytron PT 1200 disruptor set at full power for 20 sec on ice. The homogenates are centrifuged at 48,000×g at 4° C. for 20 min. The pellets are then resuspended, homogenized, and centrifuged once more in the same manner. The final pellets are resuspended in an appropriate volume of 50 mM Tris-HCl, 10 mM KCl, 1 mM MgCl2 (pH 7.4 at 4° C.), homogenized, aliquoted and stored at −80° C. until use. An aliquot of membrane fractions is used for protein concentration determination using BCA protein assay kit (PIERCE) and ARVOsx plate reader (Wallac). Binding assays are conducted in a total volume of 30 microL in 384-well plates. The activity is measured by PHERAstar (BMG LABTECH) using fluorescence polarization technology. Ten microL of test compounds are incubated with 10 microL of fluorescence ligand (6 nM Cy3B tagged dofetilide derivative) and 10 microL of membrane homogenate (6 microgram protein) for 120 minutes at room temperature. Nonspecific binding is determined by 10 microM E4031 at the final concentration.
# T1 sequence (Q12809 whole entry): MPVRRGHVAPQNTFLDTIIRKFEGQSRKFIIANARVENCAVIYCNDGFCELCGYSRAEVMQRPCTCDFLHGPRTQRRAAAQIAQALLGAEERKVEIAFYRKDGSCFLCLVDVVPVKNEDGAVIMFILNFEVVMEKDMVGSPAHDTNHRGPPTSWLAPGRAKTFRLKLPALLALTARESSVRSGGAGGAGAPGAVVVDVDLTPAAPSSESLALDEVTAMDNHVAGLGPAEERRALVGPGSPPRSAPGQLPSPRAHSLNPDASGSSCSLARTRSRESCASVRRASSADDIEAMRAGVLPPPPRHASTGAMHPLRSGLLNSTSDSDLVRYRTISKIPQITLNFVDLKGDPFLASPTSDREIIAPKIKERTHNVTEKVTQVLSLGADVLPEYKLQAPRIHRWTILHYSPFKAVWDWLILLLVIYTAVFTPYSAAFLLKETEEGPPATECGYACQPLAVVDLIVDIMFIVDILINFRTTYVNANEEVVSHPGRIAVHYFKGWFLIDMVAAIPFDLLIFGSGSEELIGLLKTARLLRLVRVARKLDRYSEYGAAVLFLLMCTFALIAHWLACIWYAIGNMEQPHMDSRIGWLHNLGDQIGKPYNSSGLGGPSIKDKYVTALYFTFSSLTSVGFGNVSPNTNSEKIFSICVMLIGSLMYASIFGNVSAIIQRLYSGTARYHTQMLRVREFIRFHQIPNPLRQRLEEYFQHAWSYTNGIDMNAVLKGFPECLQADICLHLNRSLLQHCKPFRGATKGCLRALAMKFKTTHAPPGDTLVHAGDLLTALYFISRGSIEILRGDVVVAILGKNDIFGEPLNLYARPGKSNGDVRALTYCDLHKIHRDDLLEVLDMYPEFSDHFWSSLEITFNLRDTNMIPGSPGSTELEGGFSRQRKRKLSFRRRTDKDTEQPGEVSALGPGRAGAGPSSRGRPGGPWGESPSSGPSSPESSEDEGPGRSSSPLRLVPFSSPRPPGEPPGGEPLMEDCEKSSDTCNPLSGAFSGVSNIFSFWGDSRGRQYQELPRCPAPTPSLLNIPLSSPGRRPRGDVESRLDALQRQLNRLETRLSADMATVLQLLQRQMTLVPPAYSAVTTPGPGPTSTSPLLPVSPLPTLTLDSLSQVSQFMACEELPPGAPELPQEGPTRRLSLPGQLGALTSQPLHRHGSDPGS
Compound,pIC50,pKi
CC(C)[C@@H]1CC[C@@H](C)C[C@]12NC(=O)C(CC(=O)c1ccccc1)C2=O (stereo partly shown) [closest compound],4.72,5.19

# Test system: not listed separately
# Test: Metabolic stability assay: half-life in human liver microsomes (HLM)
# Format: in vitro ADME
# Details: human, pH 7.4, read-out: intrinsic clearance (CLint)
# Description: Metabolic Stability Assay:
# Half-Life in Human Liver Microsomes (HLM)
# Test compounds (1 microM) are incubated with 1 mM MgCl2 and 0.78 mg/mL HLM (HL101) or 0.74 mg/mL HLM (Gentest UltraPool 150) or 0.61 mg/mL HLM (XenoTech XTreme 200) in 100 mM potassium phosphate buffer (pH 7.4) at 37° C. on the 96-deep well plate. The reaction mixture is split into two groups, a non-P450 and a P450 groupon necessary. NADPH is only added to the reaction mixture of the P450 group. (NADPH generation system is also used instead of NADPH.) An aliquot of samples of P450 group is collected at 0, 10, 30, and 60 min time point, where 0 min time point indicated the time when NADPH is added into the reaction mixture of P450 group. An aliquot of samples of non-P450 group is collected at −10 and 65 min time point. Collected aliquots are extracted with acetonitrile solution containing an internal standard. The precipitated protein is spun down in centrifuge (2000 rpm, 15 min). The compound concentration in supernatant is measured by LC/MS/MS system.
# The half-life value is obtained by plotting the natural logarithm of the peak area ratio of compounds/internal standard versus time. The slope of the line of best fit through the points yield the rate of metabolism (k). This is converted to a half-life value using following equations: Half-life=ln 2/k {Math. 4}
row,CLint scaled at 1 microM [mL/min/kg],Compound
1,> 215,CC(C)[C@@H]1CC[C@@H](C)C[C@]12NC(=O)C(CC(=O)c1ccccc1)C2=O (stereo partly shown) [closest compound]

# Same assay, conditions: pH 7.4, 1 microM
row,half-life at 1 microM [min],Compound
1,< 5,CC(C)[C@@H]1CC[C@@H](C)C[C@]12NC(=O)C(CC(=O)c1ccccc1)C2=O (stereo partly shown) [closest compound]

# Molecular target: T2, human TRPM8 (Homo sapiens, UniProt Q7Z2W7)
# T2 construct: expressed in transfected cells; host or cells: HEK293
# Test: Menthol-induced Ca2+ influx in HEK293 cells stably expressing human TRPM8
# Format: cell-based
# Details: 30 microM menthol-induced Ca2+ influx, read-out: IC50 against TRPM8
# Summary of the method: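 IC50 values were fitted from 11-point dose-response data averaged over duplicate wells. Compound was added for 5 min to Fluo4-loaded HEK293 cells carrying stable human TRPM8, in HBSS/HEPES pH 7.4 with probenecid. Intracellular Ca2+ change after 30 microM menthol addition was then imaged on FDSS.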
# T2 sequence (Q7Z2W7 whole entry): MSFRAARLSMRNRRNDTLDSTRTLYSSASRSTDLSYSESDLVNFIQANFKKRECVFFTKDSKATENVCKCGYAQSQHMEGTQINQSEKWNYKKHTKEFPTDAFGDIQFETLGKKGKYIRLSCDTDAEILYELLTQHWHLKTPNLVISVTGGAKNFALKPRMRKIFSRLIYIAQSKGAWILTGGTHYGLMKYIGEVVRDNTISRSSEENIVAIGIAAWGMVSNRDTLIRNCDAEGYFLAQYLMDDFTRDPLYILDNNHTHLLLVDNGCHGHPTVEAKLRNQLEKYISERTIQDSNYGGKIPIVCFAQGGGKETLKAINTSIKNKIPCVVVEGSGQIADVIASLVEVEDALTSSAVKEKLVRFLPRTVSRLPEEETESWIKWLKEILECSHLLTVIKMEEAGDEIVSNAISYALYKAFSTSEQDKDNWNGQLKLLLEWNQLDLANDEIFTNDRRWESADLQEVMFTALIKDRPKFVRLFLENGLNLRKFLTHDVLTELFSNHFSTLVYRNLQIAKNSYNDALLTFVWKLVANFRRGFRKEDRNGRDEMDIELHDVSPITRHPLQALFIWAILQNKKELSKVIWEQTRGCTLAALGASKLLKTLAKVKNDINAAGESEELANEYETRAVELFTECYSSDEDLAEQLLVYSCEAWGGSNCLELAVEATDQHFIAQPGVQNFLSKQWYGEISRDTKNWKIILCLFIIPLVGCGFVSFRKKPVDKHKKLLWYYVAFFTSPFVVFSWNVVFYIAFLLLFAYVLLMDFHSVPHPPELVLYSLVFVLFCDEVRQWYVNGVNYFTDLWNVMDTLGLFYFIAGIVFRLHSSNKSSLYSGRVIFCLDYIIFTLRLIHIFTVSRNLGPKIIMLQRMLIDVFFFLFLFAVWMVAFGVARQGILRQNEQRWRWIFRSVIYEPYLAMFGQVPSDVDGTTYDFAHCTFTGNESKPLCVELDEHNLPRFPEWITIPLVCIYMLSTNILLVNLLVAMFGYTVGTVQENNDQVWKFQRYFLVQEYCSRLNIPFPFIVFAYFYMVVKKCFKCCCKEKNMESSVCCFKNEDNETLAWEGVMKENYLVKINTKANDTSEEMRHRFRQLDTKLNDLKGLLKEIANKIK
row,pIC50,Compound
1,> 7.00,Cc1ccnnc1-c1ccc(C(=O)CN2C(=O)NC3(CCCCCC3)C2=O)cc1 [Example 5-26]
2,> 7.00,Cc1sc(C(=O)CN2C(=O)NC3(CCC(F)(F)CC3)C2=O)c(C)c1-c1cccc(C(N)=O)c1 [Example 15-7]
3,> 7.00,O=C(CN1C(=O)NC2(CCC(F)(F)CC2)C1=O)c1ccc(-c2cccnc2CO)cc1 [Example 6-9]
4,> 7.00,Cc1cc(-n2c(C)cc(C(=O)CN3C(=O)OC4(CCCCC4)C3=O)c2C)no1 [Example 1-3]
5,> 7.00,N#Cc1nccnc1-c1ccc(C(=O)CN2C(=O)NC3(CCC(F)(F)CC3)C2=O)cc1F [Example 8-1]
6,> 7.00,Cn1c(C(=O)CN2C(=O)NC3(CCC(F)(F)CC3)C2=O)ccc1-c1cccnc1 [Example 16-3]
7,> 6.30,Cc1cc(C(=O)CN2C(=O)NC3(CCC(F)(F)CC3)C2=O)sc1-c1cccnc1CO [Example 14-19]
8,> 7.00,Cc1cc(C(=O)CN2C(=O)NC3(CCC(F)(F)CC3)C2=O)n(C)c1-c1cncnc1 [Example 16-16]
9,> 7.00,O=C(CN1C(=O)NC2(CCC(F)(F)CC2)C1=O)c1ccc(-n2ccc3cccnc32)nc1 [Example 19-10]
10,> 7.00,CCOc1ncccc1-c1ccc(C(=O)CN2C(=O)NC3(CCC(F)(F)CC3)C2=O)cc1 [Example 6-39]
11,> 7.00,O=C(CN1C(=O)NC2(CCC(F)(F)CC2)C1=O)c1ccc(N2C(=O)COc3ccccc32)cc1 [Example 19-21]
12,> 8.00,COc1nc2ccc(C)nc2n1-c1ccc(C(=O)CN2C(=O)NC3(CCC(F)(F)CC3)C2=O)cc1 [Example 26-3]
13,> 7.00,Cn1nccc1-c1ccc(C(=O)CN2C(=O)NC3(CCCCC3)C2=O)cc1 [Example 7-6]
14,> 7.00,Cn1c(C(=O)CN2C(=O)NC3(CCC(F)(F)CC3)C2=O)nc(C2CC2)c1-c1cccnc1 [Example 17-5]
15,> 7.00,O=C(CN1CC2(CCC(F)(F)CC2)OC1=O)c1ccc(-n2cnc3cccnc32)cc1 [Example 22-1]
16,> 7.00,CCOc1nc2ccc(C)nc2n1-c1ccc(C(=O)CN2C(=O)NC3(CCC(F)(F)CC3)C2=O)cc1 [Example 26-4]
17,> 6.30,Cc1cc(-n2c(C)cc(C(=O)CN3C(=O)OC4(CCC(C(F)(F)F)CC4)C3=O)c2C)no1 (stereo not shown) [Example 1-5]
18,> 7.00,Cc1cncc(-n2c(C)cc(C(=O)CN3C(=O)NC4(CCCCC4)C3=O)c2C)n1 [Example 3-3]
19,> 7.00,Cn1c(C(=O)CN2C(=O)NC3(CCC(F)(F)CC3)C2=O)ccc1-c1cccc(C#N)c1 [Example 16-1]
20,> 7.00,O=C(CN1C(=O)NC2(CCC(F)(F)CC2)C1=O)c1cnc(-c2cccc3cccnc23)cn1 [Example 12-6]
21,> 7.00,O=C(CN1C(=O)NC2(CCC(F)(F)CC2)C1=O)c1ccc(-c2cnn3cccnc23)cc1 [Example 6-68]
